Where two headings read alike, the source gives them in different places.

In assay [1] the target is SARS-CoV-2 main protease (M^Pro) (Severe acute respiratory syndrome coronavirus 2, UniProt P0DTD1). As to the kind of experiment: In vitro M^Pro enzymatic inhibition with fluorogenic substrate Sub3. The assay is classed as biochemical.
The target in assay [2] is M^Pro-eGFP fusion protein in 293T cells (Severe acute respiratory syndrome coronavirus 2, UniProt P0DTD1). Briefly: cell-based. On the set-up: species or system SARS-CoV-2. As to conditions: read-out: Cellular EC50.
[3] abbreviates: 20 nM M^Pro, 10 μM Sub3, 30 min preincubation, read-out: Enzymatic IC50.
[4] abbreviates: read-out: IC50 (M^Pro enzymatic inhibition).

As for `CC1(C)[C@@H]2[C@@H](C(=O)N[C@H](C=O)C[C@@H]3CCNC3=O)N(C(=O)COc3ccc(Cl)cc3Cl)C[C@@H]21` [MI-14, (1R,2S,5S)-3-(2-(2,4-Dichlorophenoxy)acetyl)-6,6-dimethyl-N-((S)-1-oxo-3-((S)-2-oxopyrrolidin-3-yl)propan-2-yl)-3-azabicyclo[3.1.0]hexane-2-carboxamide, reference compound], the IC50 in assay [1] (setting [3]) is 28 nM; in assay [1] (setting [4]), no more than 50 nM. Also, the 50% effective concentration (EC50) in assay [2] was found to be 280 nM.
The like results for `O=C[C@H](C[C@@H]1CCNC1=O)NC(=O)[C@@H]1[C@H]2CCC[C@H]2CN1C(=O)COc1ccc(Cl)c(Cl)c1` [MI-31, (1S,3aR,6aS)-2-(2-(3,4-Dichlorophenoxy)acetyl)-N-((S)-1-oxo-3-((S)-2-oxopyrrolidin-3-yl)propan-2-yl)octahydrocyclopenta[c]pyrrole-1-carboxamide, reference compound] were, in that order, 42 nM, no more than 50 nM and 2700 nM.
Take `CC(C)(C)O[C@@H]1C[C@@H](C(=O)N[C@H](C=O)C[C@@H]2CCNC2=O)N(C(=O)OCc2ccccc2)C1` [MPI55]: the IC50 in assay [1] (setting [3]) turned out to be 560 nM.
Same read-out and setting: next, `O=C[C@H](C[C@@H]1CCNC1=O)NC(=O)[C@@H]1C[C@@H](C2CCCCC2)CN1C(=O)OCc1ccccc1` [MPI56, (2S,4S)-Benzyl 4-Cyclohexyl-2-(((S)-1-oxo-3-((S)-2-oxopyrrolidin-3-yl)propan-2-yl)carbamoyl)pyrrolidine-1-carboxylate]: 510 nM; `CC1(C)[C@@H]2[C@@H](C(=O)N[C@H](C=O)C[C@@H]3CCNC3=O)N(C(=O)CNc3ccc(Cl)cc3)C[C@@H]21` [MPI62, (1R,2S,5S)-3-((4-Chlorophenyl)glycyl)-6,6-dimethyl-N-((S)-1-oxo-3-((S)-2-oxopyrrolidin-3-yl)propan-2-yl)-3-azabicyclo[3.1.0]hexane-2-carboxamide]: 990 nM; `N#C[C@H](C[C@@H]1CCNC1=O)NC(=O)C1CC2(CCCC2)CN1C(=O)OCc1ccccc1` (stereo partly drawn) [MPI66-1, Benzyl 3-(((S)-1-Cyano-2-((S)-2-oxopyrrolidin-3-yl)ethyl)carbamoyl)-2-azaspiro[4.4]nonane-2-carboxylate]: 2200 nM.
Consider `N#C[C@H](C[C@@H]1CCNC1=O)NC(=O)C1CC2(CCCC2)CN1C(=O)OCc1cccc(Cl)c1` (stereo partly drawn) [MPI66-2, 3-Chlorobenzyl 3-(((S)-1-Cyano-2-((S)-2-oxopyrrolidin-3-yl)ethyl)carbamoyl)-2-azaspiro[4.4]nonane-2-carboxylate], for which the IC50 in assay [1] (setting [3]) was found to be 3600 nM.
`COc1cccc2[nH]c(C(=O)N3CC4(CCCC4)CC3C(=O)N[C@H](C=O)C[C@@H]3CCNC3=O)cc12` (stereo partly drawn) [MPI66-3, 2-(4-Methoxy-1H-indole-2-carbonyl)-N-((S)-1-oxo-3-((S)-2-oxopyrrolidin-3-yl)propan-2-yl)-2-azaspiro[4.4]nonane-3-carboxamide]: the IC50 in assay [1] (setting [3]) turned out to be 1500 nM.
The same measure, in the same setting: next, `COc1cccc2[nH]c(C(=O)N3CC4(CCCC4)CC3C(=O)N[C@H](C#N)C[C@@H]3CCCNC3=O)cc12` (stereo partly drawn) [MPI66-4, N-((S)-1-Cyano-2-((S)-2-oxopiperidin-3-yl)ethyl)-2-(4-methoxy-1H-indole-2-carbonyl)-2-azaspiro[4.4]nonane-3-carboxamide]: 6000 nM; `N#C[C@H](C[C@@H]1CCNC1=O)NC(=O)C1CC2(CCCCC2)CN1C(=O)OCc1ccccc1` (stereo partly drawn) [MPI67, Benzyl 3-(((S)-1-Cyano-2-((S)-2-oxopyrrolidin-3-yl)ethyl)carbamoyl)-2-azaspiro[4.5]decane-2-carboxylate]: 1400 nM; `CC(C)(C)OC(=O)N1CC2(CCC2)C[C@H]1C(=O)N[C@H](C=O)C[C@@H]1CCNC1=O` [YR-B-101, tert-Butyl-(S)-7-(((S)-1-oxo-3-((S)-2-oxopyrrolidin-3-yl)propan-2-yl)carbamoyl)-6-azaspiro[3.4]octane-6-carboxylate]: greater than 5000 nM.

Values taken from paper PMC10861299, “A Systematic Survey of Reversibly Covalent Dipeptidyl Inhibitors of the SARS-CoV-2 Main Protease” (Journal of Medicinal Chemistry, 2023).
